Laboratory results: US6994954B2, “System for organ and tissue preservation and hypothermic blood substitution” (Organ Recovery Systems, Inc., priority 2000, dated 2006)

Experiments:
A10 smooth muscle cells = test: Cryopreservation of A10 cells with DMSO in vehicle solution, Alamar Blue; type: cell-based; conditions: freezing and thawing
Description: (§1) The same system as that described above for cells in microtiter plates was used to evaluate a preferred embodiment of the exemplary High-K Intracellular-base solution as a new carrier solution for cryoprotective additives (CPA). Specifically, a phosphate-free formulation of the new High-K solution was prepared to avoid the known precipitation of divalent cation phosphates in the presence of the cryoprotectant DMSO at low temperatures. Cell survival was compared after freezing and thawing in the presence of a range of concentrations of DMSO prepared in either the new phosphate-free HK-cryoprotectant vehicle solution (HK-CV), or EuroCollins medium. EuroCollins is an organ preservation solution that has also been used in the field of cryobiology as a vehicle solution for cryoprotectants.
(§2) Cells were plated at 2×10^4 cells/well and after overnight incubation regular culture medium was replaced with the experimental CPA mixtures using the following protocol: Plates were cooled to −80° C. at a controlled rate (1° C./min) and stored overnight at −135° C. The plates were thawed using a two-step warming protocol and the CPA was diluted using mannitol as an osmotic buffer. Cell viability was assessed using the Alamar Blue assay of cellular metabolic activity at 37° C. FIGS. 15 and 16 show the comparative viability of two cell types after cryopreservation in the respective media. […]

[1] = tested on: bovine corneal endothelial (BCE) cells; test: Cryopreservation of BCE cells with DMSO in vehicle solution, Alamar Blue; type: cell-based; conditions: freezing and thawing
Description: as §1, §2

C[S+](C)[O-] [DMSO, Dimethylsulfoxide]
DMSO concentration giving optimum survival (A10 smooth muscle cells): 1 to 2 M | DMSO concentration giving optimum survival [1]: 1 to 2 M
